Patent US5064815A, “Primycin-containing colloidal basic gel” (Chinoin Gyogyszer es Vegyeszeti Termekek Gyara RT., priority 1985, dated 1991)
Where a name gives a salt, the structure may show the parent alone. Read-outs that look alike come from different tables or passages of the source.

How the values were obtained:
[1] = Spontaneous gel-formation with solvents / with N-methyl-pyrrolidone / mixed gels; type: physicochemical
Source text: We have studies spontaneous gel-formation with various solvents on the one hand and various pharmaceutical active ingredients on the other. The following solvents are used: methanol, ethanol, isopropanol, n-butanol, isobutanol, dichloromethane, chloroform, carbon tetrachloride, ethyl acetate, acetonitrile, n-hexane, petrol, benzene, toluene, petrolether, ether, dimethyl formamide, dimethyl sulfoxide, isopropyl myristate.
Furtheron gel-formation has been studied between N-methyl-pyrrolidone and further pharmaceutical active ingredients. The following active ingredients are used: gentamycin, doxycyclin, oxolinic acid, nalidixic acid, drotaverin, theophyllin, acetyl salicylic acid, papaverin, indomethacin.
We have studied furtheron the possibility of the preparation of mixed gels comprising two active ingredients, including antibiotics other then primycin (e.g. gentamicin, doxycyclin, oxytetracyclin, chloramphenicol etc.).

[2] = Solubility in N-methyl pyrrolidone; type: physicochemical; details: for Behaviour of heated N-methyl pyrrolidone solution on cooling: significant heating needed
Source text: We have examined the quantity in ml of N-methyl-pyrrolidone which is necessary to dissolve 0.1 gram of each respective compound.

[3] = tested on: acne; details: human, in vivo
[4] = tested on: gram-positive bacteria; details: cited from earlier work

Molecule | Gel formation with N-methyl-pyrrolidone [1] | Required amount of N-methyl pyrrolidone necessary to dissolve 0.1 g ([2]; (A) Room Temperature) | Required amount of N-methyl pyrrolidone necessary to dissolve 0.1 g ([2]; (B) Under Heating) | further results
CCOc1ccc(/C=C2\NCCc3cc(OCC)c(OCC)cc32)cc1OCC [drotaverin] | None of the above active ingredients form a stable transparent gel | – | – | –
Cn1c(=O)c2[nH]cnc2n(C)c1=O [theophyllin] | None of the above active ingredients form a stable transparent gel | – | – | –
[5-(18-(α-D-arabinofuranosyloxy)-2-butyl-3,7,11,15,19,21,23,25,27-nonahydroxy-4,16,32,34-tetramethyl-1-oxo-oxacyclohexatriaconta-16,32-dien-35- yl)-4-hydroxyhexyl]-guanidinium-sulfate [Primycin] | spontaneous gel-formation resulting in the formation of a stable transparent gel | does not dissolve | 0.5 milliliters | Pure gel formation with other solvents ([1]; ethanol amine, diethanol amine, triethanol amine, dimethyl formamide, dimethyl sulfoxide, 5-30%): pure gel is formed neither in the cold nor in the warm; Stable gel formation with solvents ([1]; methanol, ethanol, isopropanol, n-butanol, isobutanol, dichloromethane, chloroform, carbon tetrachloride, ethyl acetate, acetonitrile, n-hexane, petrol, benzene, toluene, petrolether, ether, dimethyl formamide, dimethyl sulfoxide, isopropyl myristate): None of the above solvents forms a stable gel with primycin; Solubility in N-methyl-pyrrolidone (in words) [2]: not easily dissolved; Temperature-dependance of the solubility [2]: more than two orders of magnitude; Precipitation from 1% solutions (1% solutions prepared under heating, on cooling): primycin precipitated upon cooling; Solubility, dissolved material (methanol): 2 µg/mL; Solubility, dissolved material (propylene glycol): 5 µg/mL; Solubility, dissolved material (water): 0.05 µg/mL; Absorption into the blood stream [3]: not to be absorbed by the blood stream; Skin irritation on topical application [3]: severe irritation to the skin; Toxicity upon entry into the bloodstream [3]: significantly toxic; Effect in combination with other antibiotics ([4]; Hungarian patent No. 158,241): synergistic effect; Antibacterial spectrum ([4]; prior art): particularly effective against gram-positive bacteria but active against polyresistant human pathogenic strains as well; Resistance development ([4]; prior art): No resistance has developed
CC(=O)OCC(=O)[C@@]1(O)CC[C@H]2[C@@H]3CCC4=CC(=O)CC[C@]4(C)[C@H]3[C@@H](O)C[C@@]21C [Hydrocortisone-Acetate] | – | 1.0 milliliters | 0.2 milliliters | –
CC(=O)Oc1ccccc1C(=O)O [acetyl salicylic acid] | None of the above active ingredients form a stable transparent gel | – | – | –
[H]/N=C(/N)N[C@H]1[C@H](O)[C@@H](O)[C@H](O[C@@H]2O[C@@H](C)[C@](O)(C=O)[C@H]2O[C@@H]2O[C@@H](CO)[C@H](O)[C@@H](O)[C@@H]2NC)[C@@H](N/C(N)=N\[H])[C@@H]1O [Streptomycin Sulfate] | – | 20.0 milliliters | does not dissolve | –
CCn1cc(C(=O)O)c(=O)c2ccc(C)nc21 [nalidixic acid] | None of the above active ingredients form a stable transparent gel | does not dissolve | 6.0 milliliters | Behaviour of heated N-methyl pyrrolidone solution on cooling [2]: precipitates after cooling
C[C@H]1c2cccc(O)c2C(O)=C2C(=O)[C@]3(O)C(O)=C(C(N)=O)C(=O)[C@@H](N(C)C)[C@@H]3[C@@H](O)[C@@H]21 [doxycyclin] | None of the above active ingredients form a stable transparent gel | 10.0 milliliters | 2.0 milliliters | –
CCn1cc(C(=O)O)c(=O)c2cc3c(cc21)OCO3 [oxolinic acid] | None of the above active ingredients form a stable transparent gel | does not dissolve | 8.0 milliliters | Behaviour of heated N-methyl pyrrolidone solution on cooling [2]: precipitates after
C[C@@H]1[C@H](O)[C@@H](C)/C=C/C=C/CC/C=C/C=C/C=C/C=C/C(O[C@H]2O[C@H](C)[C@@H](O)[C@H](N)[C@@H]2O)CC2O[C@](O)(CC(O)C(O)CCC(O)CC(O)CC(O)CC(=O)O[C@H]1C)CC(O)C2C(=O)O (stereo partly drawn) [Nystatin] | – | 5.0 milliliters | 2.0 milliliters | –
COc1ccc(Cc2nccc3cc(OC)c(OC)cc23)cc1OC [papaverin] | None of the above active ingredients form a stable transparent gel | – | – | –
COc1ccc2c(c1)c(CC(=O)O)c(C)n2C(=O)c1ccc(Cl)cc1 [indomethacin] | None of the above active ingredients form a stable transparent gel | – | – | –
CCCSc1ccc2nc(NC(=O)OC)[nH]c2c1 [Albendazole] | – | 1.5 milliliters | 1.0 milliliters | –
gentamycin | None of the above active ingredients form a stable transparent gel | – | – | –
